Measurements from US5888995A, “Steroid esters” (priority 1991, dated 1999).
Like-named read-outs stand apart in the source and are kept apart here.

Legend:
[1] = system: Sephadex induced lung edema (left lung lobe); test: Desired local antiinflammatory activity on airway mucosa (left lung lobe), Sephadex induced lung edema model, local instillation; assay type: in vivo, Sprague Dawley rats; settings: Rattus norvegicus; in liposomes; instilled into left lung lobe 2 h before Sephadex; dose to reduce the edema by 50%; lungs weighed 20 h after Sephadex; read-out: ED50 (left lung administration) Left lung lobe
Description: (§1) A) Test model for desired local antiinflammatory activity on airway mucosa (left lung lobe).
(§2) Sprague Dawley rats (250 g) were slightly anaesthetized. with Ephrane and the glucocorticosteroid test preparation (in liposomes suspended in saline) in a volume of 0.5 ml/kg was instilled into the left lung lobe only. Two hours later a suspension of Sephadex (5 mg/kg in a volume of 1 ml/kg) was instilled in the trachea well above the bifurcation so that the suspension reached both the left and right lung lobes. Twenty hours later the rats were killed and the left lung lobes dissected out and weighed. Control groups got vehicle instead of glucocorticosteroid preparation and saline instead of Sephadex suspension so that lung weight due to non-drug-treated, Sephadex-induced edema and the normal lung weight could be determined.

[2] = system: Sephadex induced lung edema (lung); test: Unwanted systemic effect by orally absorbed glucocorticosteroid, Sephadex induced lung edema model, oral administration; assay type: in vivo, Sprague Dawley rats; settings: Rattus norvegicus, 20 h, in liposomes, given orally 2 h before Sephadex, dose to reduce the edema by 50%, read-out: ED50 (p.o. adm.) lung
Description: (§3) B) Test model for unwanted systemic effect by orally absorbed glucocorticosteroid
(§4) Sprague Dawley rats (250 g) were slightly anaesthetized with Ephrane and the GCS test preparation in a volume of 1.0 ml/kg was given orally. Two hours later a suspension of Sephadex (5 mg/kg in a volume of 1 ml/kg) was instilled in the trachea well above the bifurcation so that the suspension reached both the left and the right lung lobes. Twenty hours later, the rats were killed and the lung lobes were weighed. Control groups got vehicle instead of glucocorticosteroid preparation and saline instead of Sephadex suspension so that lung weight due to non-drug-treated, Sephadex-induced edema and the normal lung weight could be determined.

[3] = system: Sephadex induced lung edema; test: Lung selectivity: ratio of oral and local ED50 in the Sephadex induced lung edema model; assay type: in vivo, Sprague Dawley rats; settings: in liposomes; ED50 p.o. / ED50 left lung lobe
Source text: A considerable fraction of inhaled GCS is deposited in the pharynx and is subsequently swallowed, ending up in the gut. This fraction contributes to the unwanted side effects of the steroid since it is acting outside the area (the lung) intended for treatment. Therefore, it is favourable to use a GCS with high local anti-inflammatory activity in the lung but low GCS-induced effects after oral administration. Studies were therefore done in order to determine the GCS-induced effects after local application in the lung as well as after peroral administration, and the differentiation between glucocorticosteroid actions in the treated lung region and outside this area was tested in the following way.
as §1, §2, §3, §4

[4] = cited from earlier work; for unwanted GCS actions within the general circulation: highest of the recommended doses for inhalation

Row | SMILES | ED50 [1] [µmol/kg] | ED50 [2] [µmol/kg] | Ratio oral/local administration (ED50) [3] | unwanted GCS actions within the general circulation [4] | safety margin ([4]; in vivo) | safety margin ([4]; inhaled, clinical use)
1 | CCCCCCCCCCCCCCCC(=O)OCC(=O)[C@@]12OC(CCC)O[C@@H]1C[C@H]1[C@@H]3CCC4=CC(=O)C=C[C@]4(C)[C@H]3[C@@H](O)C[C@@]12C (stereo partly drawn) [Budesonide-21-palmitate (RS), Budesonide-21-palmitate] | 0.023 | 1.52 | 66 | – | – | –
2 | CCCCCCCCCCCCCCCC(=O)OCC(=O)[C@@]12O[C@H](CCC)O[C@@H]1C[C@H]1[C@@H]3C[C@H](F)C4=CC(=O)CC[C@]4(C)[C@@]3(F)[C@@H](O)C[C@@]12C [Example 1, (22R)-16α,17α-Butylidenedioxy-6α,9α-difluoro-11β-hydroxy-21-palmitoyloxypregn-4-ene-3,20-dione] | 0.0015 | 0.839 | 559 | – | – | –
3 | CCCCCCCCCCCCCCCC(=O)OCC(=O)[C@@]12O[C@@H](CCC)O[C@@H]1C[C@H]1[C@@H]3C[C@H](F)C4=CC(=O)CC[C@]4(C)[C@@]3(F)[C@@H](O)C[C@@]12C [Example 3, (22S)-16α,17α-Butylidenedioxy-6α,9α-difluoro-11β-hydroxy-21-palmitoyloxypregn-4-ene-3,20-dione] | 0.0035 | 0.554 | 158 | – | – | –
4 | CCCCCCCCCCCCCCCC(=O)OCC(=O)[C@@]12O[C@H](CCC)O[C@@H]1C[C@H]1[C@@H]3C[C@H](F)C4=CC(=O)C=C[C@]4(C)[C@@]3(F)[C@@H](O)C[C@@]12C [Example 6, (22R)-16α,17α-Butylidenedioxy-6α,9α-difluoro-11β-hydroxy-21-palmitoyloxypregna-1,4-diene-3,20-dione] | 0.0018 | – | – | – | – | –
5 | CCCCCCCCCCCCCCCC(=O)OCC(=O)[C@@]12O[C@@H](CCC)O[C@@H]1C[C@H]1[C@@H]3C[C@H](F)C4=CC(=O)C=C[C@]4(C)[C@@]3(F)[C@@H](O)C[C@@]12C [Example 7, (22S)-16α,17α-Butylidenedioxy-6α,9α-difluoro-11β-hydroxy-21-palmitoyloxypregna-1,4-diene-3,20-dione] | 0.0023 | 0.568 | 247 | – | – | –
6 | CCCCCCCCCCCCCCCC(=O)OCC(=O)[C@@]1(O)[C@H](C)C[C@H]2[C@@H]3C[C@H](F)C4=CC(=O)C=C[C@]4(C)[C@@]3(F)[C@@H](O)C[C@@]21C [Flumethasone-21-palmitate] | 0.0022 | 0.018 | 8 | – | – | –
7 | CCC(=O)OCC(=O)[C@@]1(OC(=O)CC)[C@@H](C)C[C@H]2[C@@H]3CCC4=CC(=O)C=C[C@]4(C)[C@@]3(Cl)[C@@H](O)C[C@@]21C [beclomethasone 17α,21-dipropionate] | – | – | – | unwanted GCS actions within the general circulation have been reported | rather narrow safety margin | –
8 | CCCC1O[C@@H]2C[C@H]3[C@@H]4CCC5=CC(=O)C=C[C@]5(C)[C@H]4[C@@H](O)C[C@]3(C)[C@]2(C(=O)CO)O1 (some centres unmarked) [budesonide] | – | – | – | unwanted GCS actions within the general circulation have been reported | – | rather narrow safety margin
